# From PMC10819979, “Antitumor Mechanism and Therapeutic Potential of Cordycepin Derivatives” (Molecules, 2024)
# What was measured:
# MCF7 cells [1] = test: MTT cell proliferation assay, MCF7; type: cell-based; conditions: Homo sapiens, 48 h incubation, x̄ ± s, n = 6
# Procedure: (§1) MCF7, HepG2, SGC-7901 and MCF-10A were purchased from the National Infrastructure of Cell Line Resources in the Chinese Academy of Sciences (Shanghai Institute of Biochemistry and Cell Biology, Shanghai, China). Cells were maintained using RPMI-1640 medium with 10% fetal bovine serum. The cells were maintained at 37 °C in a 5% CO2-containing incubator for all treatments. Logarithmic growth phase cells were used in all experiments.
# (§2) The effect of compounds on the proliferation of cancer cells was determined with an MTT assay. Cells monolayer in exponential growth were seeded in 96-well plates at 5 × 10^3 cells/well. After cultured at 37 °C for 24 h, the culture medium was removed, then compounds (3a–4c) (1.25, 2.5, 5, 10, 20, 40, 80 μM) and HCPT (4, 8, 16 μM) were added. After 48 h incubation, 100 µL of MTT was added to each well and then cultured for 4 h in a 37 °C incubator. After that, the medium was aspirated, 150 µL of DMSO was then added to each well, and the 96-well plates were placed on an orbital shaker for 12 min until the formazan dissolved completely. The absorbance was measured at a test wavelength of 490 nm with a microplate reader, the optical density (OD) values were tested and the inhibitory rate and half inhibitory concentration (IC50) were calculated for each administration group.
# HepG2 cells = test: MTT cell proliferation assay, HepG2; type: cell-based; conditions: Homo sapiens, 48 h incubation, x̄ ± s, n = 6
# Procedure: as §1, §2
# SGC-7901 cells = test: MTT cell proliferation assay, SGC-7901; type: cell-based; conditions: Homo sapiens, 48 h incubation, x̄ ± s, n = 6
# Procedure: as §1, §2
# MCF7 = test system: MCF7; design: method as in PMID 32163051, PMID 22821173; conditions: breast cancer cell viability; cited from earlier work
# MDA-MB-453 cells = test system: MDA-MB-453 cells; design: method as in PMID 32163051, PMID 22821173; conditions: breast cancer cell viability; cited from earlier work
# MCF-10A cells = test: In vitro cytotoxicity against normal breast cell line; type: cell-based
# Procedure: as §1, §2
# MCF7 cells [2] = test: Apoptosis of MCF7 cells by flow cytometry; type: cell-based; conditions: MCF7, 56 μM, 48 h, n = 3
# Procedure: Cells were cultured in the medium for 24 h and treated with compounds in different concentrations and HCPT incubated for 48 h. The cells were centrifuged at 1000 rpm for 10 min and washed with PBS. Subsequently, the cells were […] stained with annexin V-FITC (10 μL) and propidium iodide (PI; 10 μL). The proportion of apoptotic cells was then measured by flow cytometry.
# MCF7 cells [3] = test: Cell cycle detection by flow cytometry (PI); type: cell-based; conditions: 14, 28 and 56 μM, dose-dependent
# Procedure: After the treatments, the harvested cells were incubated at 70% in ice-ethanol overnight. Subsequently, they were washed twice using PBS and incubated with propidium iodide (PI) and RNase A. Finally, the proportions of cells in different cell cycle phases were determined by flow cytometry.
# MCF7 cells [4] = test: Mitochondrial membrane potential assay (rhodamine 123, flow cytometry); type: cell-based; conditions: MCF7, dose–effect relationship
# Procedure: MCF7 cells were cultured in 6-well plates, after treatment with compounds in different concentrations and positive control group (HCPT), cells were harvested, washed with PBS, and then stained with rhodamine 123 (100 µg) for 30 min at 37 °C. The cells were collected by pipetting, washed twice with PBS and analyzed by flow cytometry (BD Biosciences, San Jose, CA, USA).
# Bcl-2 = test: Western Blot, Bcl-2 expression in MCF7 cells; type: cell-based; conditions: MCF7, 14, 28, 56 μM, 48 h
# Procedure: (§3) Cells were cultured in the medium for 24 h and treated with compounds in different concentrations and HCPT for 48 h. After lysis buffer (RIPA: PMSF = 100:1) was used to lyse cells. The lysate was further sonicated and centrifuged at 12,000 rpm for 15 min, then the supernatant obtained was collected and the denatured protein mixture was subjected to SDS gel electrophoresis and transferred to nitrocellulose membranes, and blocked with containing 5% nonfat milk. Then, the membranes were incubated with the primary antibodies (1:1000, overnight 4 °C) and secondary antibodies (1:5000, 1 h). Then, ECL Solution was used to detect the antigen–antibody complexes. The data were analyzed by NIH Image J 1.53a software.
# Caspase-9 = test: Western Blot, Caspase-9 expression in MCF7 cells; type: cell-based; conditions: MCF7, 14, 28, 56 μM, 48 h
# Procedure: as §3
# Caspase-3 = test: Western Blot, Caspase-3 expression in MCF7 cells; type: cell-based; conditions: MCF7, 14, 28, 56 μM, 48 h
# Procedure: as §3
# Bax = test: Western Blot, Bax expression in MCF7 cells; type: cell-based; conditions: MCF7, 14, 28, 56 μM, 48 h
# Procedure: as §3
# p53 = test: Western Blot, p53 expression in MCF7 cells; type: cell-based; conditions: MCF7, 14, 28, 56 μM, 48 h
# Procedure: as §3
Structure (SMILES),IC50 (MCF7 cells [1]) [µM],IC50 (HepG2 cells) [µM],IC50 (SGC-7901 cells) [µM],further results
Nc1ncnc2c1ncn2[C@@H]1O[C@H](CO)C[C@H]1O [Cordycepin],46.9 ± 1.62,51.8 ± 1.36,51.3 ± 3.77,IC50 (MCF7): 135 µM; IC50 (MDA-MB-453 cells): 70 µM
"CC(C)(C)[Si](C)(C)OC[C@@H]1C[C@@H](O)[C@H](n2cnc3c(NC(=O)c4ccco4)ncnc32)O1 [Compound 3b, 5′-O-(Tert-butyldimethylsilyl)-6-furancarboxamide-3′-deoxyadenosine]",98.03 ± 0.04,60.4 ± 1.15,41.7 ± 2.36,–
"O=C(Nc1ncnc2c1ncn2[C@@H]1O[C@H](CO)C[C@H]1O)c1ccco1 [Compound 4b, 6-Furancarboxamide-3′-deoxyadenosine]",40.9 ± 1.67,33.37 ± 0.08,86.3 ± 2.35,–
"CC(C)(C)[Si](C)(C)OC[C@@H]1C[C@@H](O)[C@H](n2cnc3c(NC(=O)c4cccs4)ncnc32)O1 [Compound 3a, 5′-O-(Tert-butyldimethylsilyl)-6-thiophenecarboxamide-3′-deoxya-denosine]",114 ± 2.03,134 ± 5.12,102 ± 1.08,–
"CC[C@@]1(O)C(=O)OCc2c1cc1n(c2=O)Cc2cc3cc(O)ccc3nc2-1 [10-hydroxycamptothecin (HCPT), 10-hydroxycamptothecin, reference compound]",7.56 ± 0.05,6.56 ± 0.45,7.96 ± 0.65,–
"O=C(Nc1ncnc2c1ncn2[C@@H]1O[C@H](CO)C[C@H]1O)c1ccc(Cl)nc1 [Compound 4c, 6-6-Chloronicotinamide-3′-deoxyadenosine]",45.3 ± 0.58,48.4 ± 0.79,80.4 ± 1.05,–
"CC(C)(C)[Si](C)(C)OC[C@@H]1C[C@@H](O)[C@H](n2cnc3c(NC(=O)c4ccc(Cl)nc4)ncnc32)O1 [Compound 3c, 5′-O-(Tert-butyldimethylsilyl)-6-6-chloroformamide-3′-deoxya-denosine]",45.8 ± 1.01,87.01 ± 0.04,82.6 ± 1.48,–
"O=C(Nc1ncnc2c1ncn2[C@@H]1O[C@H](CO)C[C@H]1O)c1cccs1 [Compound 4a, 6-Thiophenecarboxamide-3′-deoxyadenosine]",27.6 ± 0.52,68.8 ± 3.34,38.93 ± 0.06,in vitro cytotoxicity against MCF-10A (MCF-10A cells): low toxicity; percentage of apoptotic cells (MCF7 cells [2]): 50.422 ± 1.862%; effect on MCF7 cell cycle (MCF7 cells [3]): cell cycle arrest at the G0/G1 phase; positive expression rate and cell membrane potential with increase in dose (MCF7 cells [4]): decrease gradually; expression of Bcl-2 protein (Bcl-2): down-regulate; expression of Caspase-9 (Caspase-9): up-regulate; expression of Caspase-3 (Caspase-3): up-regulate; expression of Bax (Bax): up-regulate; expression of p53 (p53): up-regulate
